Assays:
sPLA2 contraction = target: T1, sPLA2 contraction (Homo sapiens, UniProt P14555); test: sPLA2-induced contraction of guinea pig lung pleural strips, tissue test (Assay Example 2); parameters: species or system Male Hartley strain guinea pigs; key to transient contraction of tissue during test: *: indicates transient contraction of tissue during test; details: for inhibition at 10 µM / inhibition at 30 µM: guinea pig, sPLA2 10 ug/ml; for inhibition at 10 µM: compound concentration 10 uM, read-out: % suppression of sPLA2 contraction at 10 uM; for inhibition at 30 µM: compound concentration 30 uM, read-out: % suppression of sPLA2 contraction at 30 uM; for transient contraction of tissue during test: footnote * of Table 2
T1 sequence (P14555 21-144): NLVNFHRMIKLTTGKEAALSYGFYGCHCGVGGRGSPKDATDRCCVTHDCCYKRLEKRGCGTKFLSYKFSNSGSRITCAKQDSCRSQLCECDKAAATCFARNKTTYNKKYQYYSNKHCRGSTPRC
Description: Male Hartley strain guinea pigs (500-700 g) were killed by cervical dislocation and their heart and lungs removed intact and placed in aerated (95% O2 :5% CO2) Krebs buffer. Dorsal pleural strips (4×1×25 mm) were dissected from intact parenchymal segments (8×4×25 mm) cut parallel to the outer edge of the lower lung lobes. Two adjacent pleural strips, obtained from a single lobe and representing a single tissue sample, were tied at either end and independently attached to a metal support rod. One rod was attached to a Grass force-displacement transducer (Model FTO3C, product of Grass Medical Instruments Co., Quincy, Mass., USA). […] All tissues were placed in 10 ml jacketed tissue baths maintained at 37° C. The tissue baths were continuously aerated and contained a modified Krebs solution of the following composition (millimolar) NaCl, 118.2; KCl, 4.6; CaCl2.2H2 O, 2.5; MgSO4.7H2 O, 1.2; NaHCO3, 24.8; KH2 PO4, 1.0; and dextrose, 10.0. Pleural strips from the opposite lobes of the lung were used for paired experiments. […] The tissues were allowed to equilibrate for 45 min. as the bath fluid was changed periodically. Cumulative concentration-response curves: Initially tissues were challenged 3 times with KCl (40 mM) to test tissue viability and to obtain a consistent response. After recording the maximal response to KCl the tissues were washed and allowed to return to baseline before the next challenge. Cumulative concentration-response curves were obtained from pleural strips by increasing the agonist concentration (sPLA2) in the tissue bath by half-log10 increments while the previous concentration remained in contact with the tissues (Ref.1, supra.) Agonist concentration was increased after reaching the plateau of the contraction elicited by the preceding concentration. One concentration-response curve was obtained from each tissue. To minimize variability between tissues obtained from different animals, contractile responses were expressed as a percentage of the maximal response obtained with the final KCl challenge. When studying the effects of various drugs on the contractile effects of sPLA2, the compounds and their respective vehicles were added to the tissues 30 min. prior to starting the sPLA2 concentration-response curves. statistical analysis: Data from different experiments were pooled and presented as a percentage of the maximal KCl responses (mean±S.E.). To estimate the drug induced rightward shifts in the concentration response curves, the curves were analyzed simultaneously using statistical nonlinear modeling methods similar to those described by Waud (1976), Equation 26, p. 163, (Ref.2). The model includes four parameters: the maximum tissue response which was assumed the same for each curve, the ED50 for the control curve, the steepness of the curves, and the PA2, the concentration of antagonist that requires a two-fold increase in agonist to achieve an equivalent response. The Schild slope was determined to be 1, using statistical nonlinear modeling methods similar to those described by Waud (1976), Equation 27, p. 164 (Ref. 2). […] To estimate the drug-induced suppression of the maximal responses, sPLA2 responses (10 ug/ml) were determined in the absence and presence of drug, and percent suppression was calculated for each pair of tissues. Ref. 1--van Rossum, J. M.: Cumulative dose-response curves. II. Technique for the making of dose-response curves in isolated organs and the evaluation of drug parameters. Arch. Int. Pharmacodyn. Ther. 143: 299-330, 1963. Ref. 2--Waud, D.: Analysis of dose-response relationships. in Advances in General and Cellular Pharmacology […]

human secreted PLA2 = target: T2, human secreted PLA2 (Homo sapiens, UniProt P14555); test: chromogenic assay of recombinant human secreted phospholipase A2 inhibition (Assay Example 1); format: biochemical; details: mean of 3-5 tests; 40° C., 30 minutes, pH 7.5, 405 nanometers; read-out: Inhibition of human secreted PLA2 IC50 ± mean deviation (3-5 tests)
T2 sequence (P14555 21-144): T1 sequence (P14555 21-144)
Description: The assay described herein has been adapted for high volume screening using 96 well microtiter plates. A general description of this assay method is found in the article, "Analysis of Human Synovial Fluid Phospholipase A2 on Short Chain Phosphatidylcholine-Mixed Micelles: Development of a Spectrophotometric Assay Suitable for a Microtiterplate Reader", by Laure J. Reynolds, Lori L. […] Reagents, the disclosure of which is incorporated herein by reference. REACTION BUFFER CaCl2.2H20 (1.47 g/L) KCl (7.455 g/L) Bovine Serum Albumin (fatty acid free) (1 g/L) (Sigma A-7030, product of Sigma Chemical Co. St. Louis Mo., USA) TRIS HCl (3.94 g/L) pH 7.5 (adjust with NaOH) ENZYME BUFFER […] 0.2 NaCl Adjust pH to 4.5 with acetic acid DTNB […] RACEMIC DIHEPTANOYL THIO - PC […] TRITON X-100™ prepare at 6.249 mg/ml in reaction buffer to equal […]. REACTION MIXTURE A measured volume of racemic dipheptanoyl thio PC supplied in chloroform at a concentration of 100 mg/ml is taken to dryness and redissolved in 10 millimolar TRITON X-100™ nonionic detergent aqueous solution. Reaction Buffer is added to the solution, then DTNB to give the Reaction Mixture. The reaction mixture thus obtained contains 1 mM diheptanoly thio-PC substrate, 0.29 mM Triton X-100™ detergent, and 0.12 mM DTMB in a buffered aqueous solution at pH 7.5. Assay Procedure: 1. Add 0.2 ml reaction mixture to all wells; 2. Add 10 ul test compound (or solvent blank) to appropriate wells, mix 20 seconds; 3. Add 50 nanograms of sPLA2 (10 microliters) to appropriate wells; 4. Incubate plate at 40° C. for 30 minutes; […] Read absorbance of wells at 405 nanometers with an automatic plate reader. All compounds were tested in triplicate. Typically, compounds were tested at a final concentration of 5 ug/ml. […] Lack of color development at 405 nanometers evidenced inhibition. Compounds initially found to be active were reassayed to confirm their activity and, if sufficiently active, IC50 values were determined. […] In all cases, % inhibition measured at 405 nanometers generated by enzyme reactions containing inhibitors relative to the uninhibited control reactions was determined. Each sample was titrated in triplicate and result values were averaged for plotting and calculation of IC50 values. […] IC50 values were determined at least three times for each compound tested.

inhibition at 10 µM (sPLA2 contraction) [%]	inhibition at 30 µM (sPLA2 contraction) [%]	IC50 (human secreted PLA2) [nM]	transient contraction of tissue during test (sPLA2 contraction)	Compound
41.2 ± 3.8	48 ± 7	360 ± 30	–	Cc1c(CC(=O)NN)c2cc(C(=O)O)ccc2n1Cc1cccc(Cl)c1 [Example 68, 5-Carboxy-1-[(3-chlorophenyl)methyl]-2-methyl-1H-indole-3-acetic acid hydrazide]
–	91.3 ± 6	390 ± 30	–	COc1ccc2c(c1)c(CC(=O)NN)c(Cl)n2Cc1ccccc1 [Example 43, 2-Chloro-5-methoxy-1-(phenylmethyl)-1H-indole-3-acetic acid hydrazide]
37.8 ± 15.5	29.1 ± 7	710 ± 340	–	Cc1c(CC(=O)NN)c2cc(Br)ccc2n1Cc1cccc(OCc2ccccc2)c1 [Example 52, 1-[(3-Benzyloxyphenyl)methyl]-5-bromo-2-methyl-1H-indole-3-acetic acid hydrazide]
–	11 ± 10.3	5170 ± 6710	–	CCc1c(CC(=O)NN)c2cc(OC)ccc2n1Cc1ccccc1-c1ccccc1 [Example 4, 1-([1,1'-biphenyl]-2-ylmethyl)-2-ethyl-5-methoxy-1H-indole-3-acetic acid hydrazide]
70.7 ± 6.4	98 ± 1.5	1020 ± 180	*	COc1ccc2c(c1)c(CC(=O)NN)c(C)n2Cc1cccc(Cl)c1 [Example 18, 1-(3-Chlorophenylmethyl)-5-methoxy-2-methyl-1H-indole-3-acetic acid hydrazide]
–	72.3 ± 4.5	1390 ± 690	–	Cc1c(CC(=O)NN)c2cc(O)ccc2n1Cc1ccccc1 [Example 61, 5-Hydroxy-2-methyl-1-(phenylmethyl)-1H-indole-3-acetic acid hydrazide]
–	21.2 ± 12.5	70500 ± 2890	–	CCCc1c(CC(=O)NN)c2cc(OC)ccc2n1Cc1ccccc1 [Example 5, 5-Methoxy-1-(phenylmethyl)-2-propyl-1H-indole-3-acetic acid hydrazide]
–	87.4 ± 9.3	430 ± 30	–	COc1ccc2c(c1)c(CC(=O)NN)c(Br)n2Cc1ccccc1 [Example 44, 2-Bromo-5-methoxy-1-(phenylmethyl)-1H-indole-3-acetic acid hydrazide]
–	77.9 ± 4.2	420 ± 190	*	CCc1c(CC(=O)NN)c2cc(OC)ccc2n1Cc1ccccc1 [Example 3, 2-Ethyl-5-methoxy-1-(phenylmethyl)-1H-indole-3-acetic acid hydrazide]
